Reference: patent US20020111274A1, “1-alkyl-3-[1-(substituted phenyl) benzotriazol-6-yl] uracils” (BASF Aktiengesellschaft, priority 2000, published 2002)

Assays:
Set-up in all cases: scale not given here
ECHOG Barnyardgrass [1] = assay: Preemergence herbicidal evaluation, ECHOG; type: in vivo, Echinochloa crus-galli, (L.) Beau; conditions: preemergence
How it was run: (§1)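 Compound applied preemergence as an aqueous acetone spray onto freshly planted cups, dose equivalent approx. 0.013 to 0.800 kg/ha. Evaluation by rating at weeks 4–5.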

ZEAMX Corn, Field [2] = assay: Preemergence herbicidal evaluation, ZEAMX; type: in vivo, Zea mays, L. (Sammel-Bezeichnung); conditions: preemergence
How it was run: as §1

AMBEL Ragweed, Common [3] = assay: Preemergence herbicidal evaluation, AMBEL; type: in vivo, Ambrosia artemisifolia, L.; conditions: preemergence
How it was run: as §1

[4] = system: IPOHE Morningglory, Ivyleaf; assay: Postemergence herbicidal evaluation, IPOHE; type: in vivo, Ipomoea hederacea, (L.) Jacq.; conditions: postemergence spray, rated about two-three weeks after treatment
How it was run: (§2)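 Ratings from greenhouse plants scored about two to three weeks after a foliar spray; data from multiple tests averaged. Seedlings about two weeks old received roughly 0.006–0.400 kg/ha active compound in 80/20 acetone/water with 1.0% methylated seed oil.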

[5] = system: CHEAL Lambsquarters, Common; assay: Preemergence herbicidal evaluation, CHEAL; type: in vivo, Chenopodium album, L.; conditions: preemergence
How it was run: as §1

ABUTH Velvetleaf [6] = assay: Preemergence herbicidal evaluation, ABUTH; type: in vivo, Abutilon theophrasti, Medic.; conditions: preemergence
How it was run: as §1

ECHOG Barnyardgrass [7] = assay: Postemergence herbicidal evaluation, ECHOG; type: in vivo, Echinochloa crus-galli, (L.) Beau; conditions: postemergence spray, rated about two-three weeks after treatment
How it was run: as §2

CASOB Sicklepod [8] = assay: Preemergence herbicidal evaluation, CASOB; type: in vivo, Cassia obtusifolia, L.; conditions: preemergence
How it was run: as §1

ORYSAT Rice, Tebonnet [9] = assay: Postemergence herbicidal evaluation, ORYSAT; type: in vivo, Oryza sativa, (L.); conditions: postemergence spray, rated about two-three weeks after treatment
How it was run: as §2

SETVI Foxtail, Green [10] = assay: Preemergence herbicidal evaluation, SETVI; type: in vivo, Setaria viridis, (L.) Beau; conditions: preemergence
How it was run: as §1

GALAP Galium [11] = assay: Postemergence herbicidal evaluation, GALAP; type: in vivo, Galium aparine; conditions: postemergence spray, rated about two-three weeks after treatment
How it was run: as §2

ZEAMX Corn, Field [12] = assay: Postemergence herbicidal evaluation, ZEAMX; type: in vivo, Zea mays, L. (Sammel-Bezeichnung); conditions: postemergence spray, rated about two-three weeks after treatment
How it was run: as §2

ORYSAT Rice, Tebonnet [13] = assay: Preemergence herbicidal evaluation, ORYSAT; type: in vivo, Oryza sativa, (L.); conditions: preemergence
How it was run: as §1

CASOB Sicklepod [14] = assay: Postemergence herbicidal evaluation, CASOB; type: in vivo, Cassia obtusifolia, L.; conditions: postemergence spray, rated about two-three weeks after treatment
How it was run: as §2

SETVI Foxtail, Green [15] = assay: Postemergence herbicidal evaluation, SETVI; type: in vivo, Setaria viridis, (L.) Beau; conditions: postemergence spray, rated about two-three weeks after treatment
How it was run: as §2

GALAP Galium [16] = assay: Preemergence herbicidal evaluation, GALAP; type: in vivo, Galium aparine; conditions: preemergence
How it was run: as §1

[17] = system: TRZAWR Wheat, Winter, cv Riband; assay: Preemergence herbicidal evaluation, TRZAWR; type: in vivo, Triticum aestivum; conditions: preemergence
How it was run: as §1

ABUTH Velvetleaf [18] = assay: Postemergence herbicidal evaluation, ABUTH; type: in vivo, Abutilon theophrasti, Medic.; conditions: postemergence spray, rated about two-three weeks after treatment
How it was run: as §2

[19] = system: IPOHE Morningglory, Ivyleaf; assay: Preemergence herbicidal evaluation, IPOHE; type: in vivo, Ipomoea hederacea, (L.) Jacq.; conditions: preemergence
How it was run: as §1

GLXMAW Soybean, Williams [20] = assay: Postemergence herbicidal evaluation, GLXMAW; type: in vivo, Glycine max, (L.) Merr. cv Williams; conditions: postemergence spray, rated about two-three weeks after treatment
How it was run: as §2

[21] = system: CHEAL Lambsquarters, Common; assay: Postemergence herbicidal evaluation, CHEAL; type: in vivo, Chenopodium album, L.; conditions: postemergence spray, rated about two-three weeks after treatment
How it was run: as §2

GLXMAW Soybean, Williams [22] = assay: Preemergence herbicidal evaluation, GLXMAW; type: in vivo, Glycine max, (L.) Merr. cv Williams; conditions: preemergence
How it was run: as §1

[23] = system: TRZAWR Wheat, Winter, cv Riband; assay: Postemergence herbicidal evaluation, TRZAWR; type: in vivo, Triticum aestivum; conditions: postemergence spray, rated about two-three weeks after treatment
How it was run: as §2

AMBEL Ragweed, Common [24] = assay: Postemergence herbicidal evaluation, AMBEL; type: in vivo, Ambrosia artemisifolia, L.; conditions: postemergence spray, rated about two-three weeks after treatment
How it was run: as §2

Compound `COc1ccc(-n2nnc3cc(F)c(-n4c(=O)cc(C(F)(F)F)n(C)c4=O)cc32)cc1` [Example 27] has an ECHCG herbicidal rating (ECHOG Barnyardgrass [1]; rate 0.016 kg/ha) of 1.0, an ECHCG herbicidal rating (ECHOG Barnyardgrass [1]; rate 0.032 kg/ha) of 4.0 and an ECHCG herbicidal rating (ECHOG Barnyardgrass [1]; rate 0.062 kg/ha) of 9.0. For the same compound, the ECHCG herbicidal rating (ECHOG Barnyardgrass [1]; rate 0.125 kg/ha) was 9.0, the ZEAMX herbicidal rating (ZEAMX Corn, Field [2]; rate 0.016 kg/ha) was 2.0 and the ZEAMX herbicidal rating (ZEAMX Corn, Field [2]; rate 0.032 kg/ha) was 4.0. For the same compound, the ZEAMX herbicidal rating (ZEAMX Corn, Field [2]; rate 0.062 kg/ha) was 7.0, the ZEAMX herbicidal rating (ZEAMX Corn, Field [2]; rate 0.125 kg/ha) was 7.0 and the AMBEL herbicidal rating (AMBEL Ragweed, Common [3]; rate 0.016 kg/ha) was 0.0. For the same compound, the AMBEL herbicidal rating (AMBEL Ragweed, Common [3]; rate 0.032 kg/ha) was 2.0, the AMBEL herbicidal rating (AMBEL Ragweed, Common [3]; rate 0.062 kg/ha) was 7.0 and the AMBEL herbicidal rating (AMBEL Ragweed, Common [3]; rate 0.125 kg/ha) was 9.0. The “Postemergence herbicidal rating IPOHE” value ([4]; 0.008 kg/ha) was 9.0, the “Postemergence herbicidal rating IPOHE” value ([4]; 0.016 kg/ha) was 9.0 and the “Postemergence herbicidal rating IPOHE” value ([4]; 0.032 kg/ha) was 9.0. For the same compound, the CHEAL herbicidal rating ([5]; rate 0.016 kg/ha) was 9.0, the CHEAL herbicidal rating ([5]; rate 0.032 kg/ha) was 9.0 and the CHEAL herbicidal rating ([5]; rate 0.062 kg/ha) was 9.0. It also gave a CHEAL herbicidal rating ([5]; rate 0.125 kg/ha) of 9.0, an ABUTH herbicidal rating (ABUTH Velvetleaf [6]; rate 0.032 kg/ha) of 6.0 and an ABUTH herbicidal rating (ABUTH Velvetleaf [6]; rate 0.062 kg/ha) of 9.0. For the same compound, the ABUTH herbicidal rating (ABUTH Velvetleaf [6]; rate 0.125 kg/ha) was 9.0, the “Postemergence herbicidal rating ECHCG” value (ECHOG Barnyardgrass [7]; 0.008 kg/ha) was 1.0 and the “Postemergence herbicidal rating ECHCG” value (ECHOG Barnyardgrass [7]; 0.016 kg/ha) was 1.0. For the same compound, the “Postemergence herbicidal rating ECHCG” value (ECHOG Barnyardgrass [7]; 0.032 kg/ha) was 2.0, the CASOB herbicidal rating (CASOB Sicklepod [8]; rate 0.016 kg/ha) was 0.0 and the CASOB herbicidal rating (CASOB Sicklepod [8]; rate 0.032 kg/ha) was 1.0. For the same compound, the CASOB herbicidal rating (CASOB Sicklepod [8]; rate 0.062 kg/ha) was 2.0, the CASOB herbicidal rating (CASOB Sicklepod [8]; rate 0.125 kg/ha) was 9.0 and the “Postemergence herbicidal rating ORYSAT” value (ORYSAT Rice, Tebonnet [9]; 0.008 kg/ha) was 2.5. The “Postemergence herbicidal rating ORYSAT” value (ORYSAT Rice, Tebonnet [9]; 0.016 kg/ha) was 4.5, the “Postemergence herbicidal rating ORYSAT” value (ORYSAT Rice, Tebonnet [9]; 0.032 kg/ha) was 4.5 and the SETVI herbicidal rating (SETVI Foxtail, Green [10]; rate 0.016 kg/ha) was 9.0. The SETVI herbicidal rating (SETVI Foxtail, Green [10]; rate 0.032 kg/ha) was 9.0, the SETVI herbicidal rating (SETVI Foxtail, Green [10]; rate 0.062 kg/ha) was 9.0 and the SETVI herbicidal rating (SETVI Foxtail, Green [10]; rate 0.125 kg/ha) was 9.0. The “Postemergence herbicidal rating GALAP” value (GALAP Galium [11]; 0.008 kg/ha) was 1.0, the “Postemergence herbicidal rating GALAP” value (GALAP Galium [11]; 0.016 kg/ha) was 4.0 and the “Postemergence herbicidal rating GALAP” value (GALAP Galium [11]; 0.032 kg/ha) was 9.0. The “Postemergence herbicidal rating ZEAMX” value (ZEAMX Corn, Field [12]; 0.008 kg/ha) was 4.5, the “Postemergence herbicidal rating ZEAMX” value (ZEAMX Corn, Field [12]; 0.016 kg/ha) was 5.0 and the “Postemergence herbicidal rating ZEAMX” value (ZEAMX Corn, Field [12]; 0.032 kg/ha) was 5.5. For the same compound, the ORYSAT herbicidal rating (ORYSAT Rice, Tebonnet [13]; rate 0.016 kg/ha) was 1.0, the ORYSAT herbicidal rating (ORYSAT Rice, Tebonnet [13]; rate 0.032 kg/ha) was 2.0 and the ORYSAT herbicidal rating (ORYSAT Rice, Tebonnet [13]; rate 0.062 kg/ha) was 5.0. For the same compound, the ORYSAT herbicidal rating (ORYSAT Rice, Tebonnet [13]; rate 0.125 kg/ha) was 6.0, the “Postemergence herbicidal rating CASOB” value (CASOB Sicklepod [14]; 0.008 kg/ha) was 1.0 and the “Postemergence herbicidal rating CASOB” value (CASOB Sicklepod [14]; 0.016 kg/ha) was 1.0. For the same compound, the “Postemergence herbicidal rating CASOB” value (CASOB Sicklepod [14]; 0.032 kg/ha) was 6.0, the “Postemergence herbicidal rating SETVI” value (SETVI Foxtail, Green [15]; 0.008 kg/ha) was 7.0 and the “Postemergence herbicidal rating SETVI” value (SETVI Foxtail, Green [15]; 0.016 kg/ha) was 4.0. The “Postemergence herbicidal rating SETVI” value (SETVI Foxtail, Green [15]; 0.032 kg/ha) was 7.0, the GALAP herbicidal rating (GALAP Galium [16]; rate 0.016 kg/ha) was 1.0 and the GALAP herbicidal rating (GALAP Galium [16]; rate 0.032 kg/ha) was 2.0. For the same compound, the GALAP herbicidal rating (GALAP Galium [16]; rate 0.062 kg/ha) was 9.0, the GALAP herbicidal rating (GALAP Galium [16]; rate 0.125 kg/ha) was 9.0 and the TRZAWR herbicidal rating ([17]; rate 0.016 kg/ha) was 1.0. For the same compound, the TRZAWR herbicidal rating ([17]; rate 0.032 kg/ha) was 2.0, the TRZAWR herbicidal rating ([17]; rate 0.062 kg/ha) was 3.0 and the TRZAWR herbicidal rating ([17]; rate 0.125 kg/ha) was 2.0. The “Postemergence herbicidal rating ABUTH” value (ABUTH Velvetleaf [18]; 0.008 kg/ha) was 9.0, the “Postemergence herbicidal rating ABUTH” value (ABUTH Velvetleaf [18]; 0.016 kg/ha) was 9.0 and the “Postemergence herbicidal rating ABUTH” value (ABUTH Velvetleaf [18]; 0.032 kg/ha) was 9.0. For the same compound, the IPOHE herbicidal rating ([19]; rate 0.016 kg/ha) was 0.0, the IPOHE herbicidal rating ([19]; rate 0.032 kg/ha) was 1.0 and the IPOHE herbicidal rating ([19]; rate 0.062 kg/ha) was 1.0. The IPOHE herbicidal rating ([19]; rate 0.125 kg/ha) was 5.0, the “Postemergence herbicidal rating GLXMAW” value (GLXMAW Soybean, Williams [20]; 0.008 kg/ha) was 5.0 and the “Postemergence herbicidal rating GLXMAW” value (GLXMAW Soybean, Williams [20]; 0.016 kg/ha) was 6.0. For the same compound, the “Postemergence herbicidal rating GLXMAW” value (GLXMAW Soybean, Williams [20]; 0.032 kg/ha) was 6.0, the “Postemergence herbicidal rating CHEAL” value ([21]; 0.008 kg/ha) was 4.0 and the “Postemergence herbicidal rating CHEAL” value ([21]; 0.016 kg/ha) was 7.0. The “Postemergence herbicidal rating CHEAL” value ([21]; 0.032 kg/ha) was 9.0, the GLXMAW herbicidal rating (GLXMAW Soybean, Williams [22]; rate 0.016 kg/ha) was 1.0 and the GLXMAW herbicidal rating (GLXMAW Soybean, Williams [22]; rate 0.032 kg/ha) was 1.0. The GLXMAW herbicidal rating (GLXMAW Soybean, Williams [22]; rate 0.062 kg/ha) was 5.0, the GLXMAW herbicidal rating (GLXMAW Soybean, Williams [22]; rate 0.125 kg/ha) was 9.0 and the “Postemergence herbicidal rating TRZAWR” value ([23]; 0.008 kg/ha) was 2.0. For the same compound, the “Postemergence herbicidal rating TRZAWR” value ([23]; 0.016 kg/ha) was 4.0, the “Postemergence herbicidal rating TRZAWR” value ([23]; 0.032 kg/ha) was 4.5 and the “Postemergence herbicidal rating AMBEL” value (AMBEL Ragweed, Common [24]; 0.008 kg/ha) was 5.0. For the same compound, the “Postemergence herbicidal rating AMBEL” value (AMBEL Ragweed, Common [24]; 0.016 kg/ha) was 9.0 and the “Postemergence herbicidal rating AMBEL” value (AMBEL Ragweed, Common [24]; 0.032 kg/ha) was 9.0.
